Among the data in patent US8912329B2 (priority 2009, dated 2014) are remaining activity values, retold here.

The target in this assay is EthR-VP16 (Mycobacterium bovis, UniProt Q7TVI1). Briefly: cell-based. The arrangement: species or system M. bovis. The following applies: 48 h, read-out: % EthR activity (w/o = 100%); ± std. dev. of the mean (n = 3).
EthR-VP16, sequence (Q7TVI1 whole entry, looked up): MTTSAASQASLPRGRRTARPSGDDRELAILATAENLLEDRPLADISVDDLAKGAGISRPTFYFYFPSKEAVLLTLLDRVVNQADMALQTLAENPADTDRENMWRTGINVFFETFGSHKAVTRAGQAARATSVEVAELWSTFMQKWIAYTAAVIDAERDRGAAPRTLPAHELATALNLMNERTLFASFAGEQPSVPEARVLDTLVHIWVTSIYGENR
On to `CC(C)CC(=O)N1CCOC(c2ccccc2)C1` (stereo not shown) [Example 19, 3-Methyl-1-(2-phenylmorpholin-4-yl)butan-1-one], for which the remaining activity at 0.5 µM is 95.6 ± 9.07%, the remaining activity at 1.5 µM worked out at 102 ± 4.13%, the remaining activity at 3 µM was 95.9 ± 9.02% and the remaining activity at 6 µM turned out to be 96.4 ± 13.5%. The remaining activity at 15 µM was determined as 76 ± 6.56%, the remaining activity at 30 µM was 35.2 ± 5.28%, the remaining activity at 60 µM was 33.5 ± 5.96% and the remaining activity at 300 µM was 27.6 ± 0.37%.
As for `CC(C)(C)CC(=O)N1CCOC(c2ccccc2)C1` (stereo not shown) [Example 20, 3,3-Dimethyl-1-(2-phenylmorpholin-4-yl)butan-1-one], the remaining activity at 0.5 µM was found to be 96.6 ± 11.1%, the remaining activity at 1.5 µM was determined as 90.9 ± 14%, the remaining activity at 3 µM stood at 88.2 ± 8.63% and the remaining activity at 6 µM worked out at 89 ± 4.56%. Besides, the remaining activity at 15 µM came to 75.5 ± 6.63%, the remaining activity at 30 µM is 43.7 ± 3.21%, the remaining activity at 60 µM was found to be 33 ± 6.41% and the remaining activity at 300 µM was 35.5 ± 1.37%.
As for `O=C(CCc1ccccc1)N1CCOC(c2ccccc2)C1` (stereo not shown) [Example 21, 3-Phenyl-1-(2-phenylmorpholin-4-yl)propan-1-one], the remaining activity at 0.5 µM stood at 108 ± 7.36%, the remaining activity at 1.5 µM stood at 98.5 ± 16.4%, the remaining activity at 3 µM stood at 73.5 ± 7.58% and the remaining activity at 6 µM worked out at 60.2 ± 8.98%. Moreover, the remaining activity at 15 µM came to 40.8 ± 4.81%, the remaining activity at 30 µM was 8.33 ± 5.61%, the remaining activity at 60 µM was 6.29 ± 1.05% and the remaining activity at 300 µM came to 1.34 ± 1.58%.
Regarding `CCCCCC(=O)N1CCC(c2ccccc2)C1` (stereo not shown) [Example 33, 1-(3-Phenylpyrrolidin-1-yl)hexan-1-one], the remaining activity at 0.5 µM was determined as 11.4 ± 3.47%, the remaining activity at 1.5 µM was determined as 14.9 ± 5.68%, the remaining activity at 3 µM is 5.8 ± 2.33% and the remaining activity at 6 µM was determined as 3.83 ± 1.01%. Moreover, the remaining activity at 15 µM came out at 4.58 ± 1.34%, the remaining activity at 30 µM is 5.01 ± 0.8%, the remaining activity at 60 µM was determined as 5.24 ± 2.58% and the remaining activity at 300 µM stood at 2.78 ± 1.33%.
For `CCCCC(=O)N1CCOC(c2ccccc2)C1` (stereo not shown) [Example 30, 1-(2-Phenylmorpholin-4-yl)pentan-1-one], the remaining activity at 0.5 µM is 112 ± 16.1%, the remaining activity at 1.5 µM worked out at 111 ± 17.1%, the remaining activity at 3 µM is 101 ± 5.87% and the remaining activity at 6 µM was determined as 90.5 ± 5.55%. Also, the remaining activity at 15 µM stood at 69.2 ± 8.71%, the remaining activity at 30 µM amounted to 43.3 ± 2.01%, the remaining activity at 60 µM was 26.9 ± 2.34% and the remaining activity at 300 µM worked out at 14.9 ± 3%.
Consider `CCCCC(=O)N1CCC(c2ccccc2)C1` (stereo not shown) [Example 32, 1-(3-Phenylpyrrolidin-1-yl)pentan-1-one], for which the remaining activity at 0.5 µM turned out to be 12.5 ± 5.97%, the remaining activity at 1.5 µM was 10.7 ± 2.55%, the remaining activity at 3 µM was found to be 10.4 ± 2.69% and the remaining activity at 6 µM was 9.96 ± 3.44%. Also, the remaining activity at 15 µM turned out to be 5.65 ± 1.1%, the remaining activity at 30 µM came out at 8.77 ± 1.57%, the remaining activity at 60 µM came to 8.89 ± 1.74% and the remaining activity at 300 µM worked out at 1.56 ± 0.8%.
Consider `CCCCCC(=O)N1CCN(Cc2ccccc2)CC1` [Example 29, 1-(4-Benzylpiperazin-1-yl)hexan-1-one], for which the remaining activity at 0.5 µM came out at 85.4 ± 9.96%, the remaining activity at 1.5 µM was found to be 56 ± 5.54%, the remaining activity at 3 µM is 36.5 ± 3.17% and the remaining activity at 6 µM worked out at 26.5 ± 0.73%. The remaining activity at 15 µM was 16.9 ± 0.73%, the remaining activity at 30 µM worked out at 16.7 ± 3.59%, the remaining activity at 60 µM was found to be 10 ± 2.93% and the remaining activity at 300 µM was 12.9 ± 4.6%.
`O=C(CCc1ccco1)N1CCN(Cc2ccccc2)CC1` [Example 18, 1-(4-Benzylpiperazin-1-yl)-3-(furan-2-yl)propan-1-one]: the remaining activity at 0.5 µM worked out at 91.9 ± 3.57%, the remaining activity at 1.5 µM was 80.7 ± 8.89%, the remaining activity at 3 µM stood at 81.4 ± 15.9% and the remaining activity at 6 µM was 59.3 ± 1.2%. The remaining activity at 15 µM was found to be 44.2 ± 2.35%, the remaining activity at 30 µM was found to be 11.2 ± 1.68%, the remaining activity at 60 µM worked out at 12.4 ± 1.85% and the remaining activity at 300 µM came out at 1.74 ± 0.26%.
